Test results as given in patent US11566007B2, “Ras inhibitors” (Revolution Medicines, Inc., priority 2019, dated 2023).

Legend:
[1] = test system: NCI-H358 cells (K-Ras G12C); assay: Potency assay: pERK in NCI-H358 cells; assay type: cell-based, human; conditions: Homo sapiens, NCI-H358; H358 KRAS G12C; read-out: pERK EC50
In short: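 Inhibition of cellular pERK after a 4 h treatment, detected by AlphaLISA or In-Cell Western. IC50 from a four-parameter concentration-response fit.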

KRAS G12V = KRAS G12V (Homo sapiens (Human), UniProt P01116+P62937, G12V); assay: Ras-Raf (BRAF RBD) disruption / FRET / MOA assay, KRAS G12V; assay type: biochemical; conditions: read-out: IC50* KRAS G12V FRET data
Sequence of KRAS G12V (P01116-2 other isoform, or with tags, fused parts or gaps G12V): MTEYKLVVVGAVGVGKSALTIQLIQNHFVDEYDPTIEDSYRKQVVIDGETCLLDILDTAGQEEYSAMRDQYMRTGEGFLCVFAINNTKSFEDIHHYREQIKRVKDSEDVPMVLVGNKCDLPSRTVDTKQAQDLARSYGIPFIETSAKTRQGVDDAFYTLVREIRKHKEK
Sequence of KRAS G12V (P62937 whole entry): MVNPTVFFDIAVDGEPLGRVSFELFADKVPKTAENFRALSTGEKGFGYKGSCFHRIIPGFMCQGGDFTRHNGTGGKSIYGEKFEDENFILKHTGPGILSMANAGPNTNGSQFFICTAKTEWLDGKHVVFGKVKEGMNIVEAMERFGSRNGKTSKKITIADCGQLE
In short: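 A 10-point, 3-fold dilution series topping at 30 μM final was incubated 3 h at 25° C with the Ras/cyclophilin A/BRAF RBD mixture.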

| SMILES | EC50 [1] [µM] | IC50 (KRAS G12V) [µM] |
| --- | --- | --- |
| CCn1c(-c2cccnc2[C@H](C)OC)c2c3cc(ccc31)-c1csc(n1)C[C@H](NC(=O)[C@H](C(C)C)N(C)C(=O)N1CCC13CN(C(=O)/C=C/CN(C)C)C3)C(=O)N1CCC[C@H](N1)C(=O)OCC(C)(C)C2 (atropisomer, axis not shown) [Example A598] | < 5 | 0.1 to 1 |
| C=CC(=O)N1CCOC2(CCN(C(=O)N(C)[C@H](C(=O)N[C@H]3Cc4cccc(n4)-c4ccc5c(c4)c(c(-c4cccnc4[C@H](C)OC)n5CC(F)(F)F)CC(C)(C)COC(=O)[C@@H]4CCCN(N4)C3=O)C(C)C)CC2)C1 (atropisomer, axis not shown) [Example A607, 4-acryloyl-N-((2S)-1-(((6^3S,4S)-1^2-(2-((S)-1-methoxyethyl)pyridin-3-yl)-10,10-dimethyl-5,7-dioxo-1^1-(2,2,2-trifluoroethyl)-6^1,6^2,6^3,6^4,6^5,6^6-hexahydro-1^1H-8-oxa-1(5,3)-indola-6(1,3)-pyridazina-2(2,6)-pyridinacycloundecaphane-4-yl)amino)-3-methyl-1-oxobutan-2-yl)-N-methyl-1-oxa-4,9-diazaspiro[5.5]undecane-9-carboxamide] | < 5 | 1 to 10 |
| CCn1c(-c2cccnc2[C@H](C)OC)c2c3cc(ccc31)-c1csc(n1)C[C@H](NC(=O)[C@H](C(C)C)N(C)C(=O)N1CCC13CN(C(=O)/C=C/CN1CCOCC1)C3)C(=O)N1CCC[C@H](N1)C(=O)OCC(C)(C)C2 (atropisomer, axis not shown) [Example A611] | < 5 | 0.1 to 1 |
| CCn1c(-c2cccnc2[C@H](C)OC)c2c3cc(ccc31)-c1cccc(c1)C[C@H](NC(=O)[C@@H](COC1CN(C(=O)C#CC(C)(C)N(C)C3CC3)C1)C(C)C)C(=O)N1CCC[C@H](N1)C(=O)OCC(C)(C)C2 (atropisomer, axis not shown) [Example A613] | < 5 | > 10 |
| CCn1c(-c2cccnc2[C@H](C)OC)c2c3cc(ccc31)N1CCC[C@@H](C[C@H](NC(=O)[C@H](C(C)C)N(C)C(=O)[C@H]3CCN(C(=O)C#CC(C)(C)N4CCC4)C3)C(=O)N3CCC[C@H](N3)C(=O)OCC(C)(C)C2)C1 (atropisomer, axis not shown) [Example A617] | < 5 | > 10 |
| C=CC(=O)N1CCC[C@H]2CN(C(=O)N(C)[C@H](C(=O)N[C@H]3Cc4nc(cs4)-c4ccc5c(c4)c(c(-c4cccnc4[C@H](C)OC)n5CC)CC(C)(C)COC(=O)[C@@H]4CCCN(N4)C3=O)C(C)C)C[C@H]21 (atropisomer, axis not shown) [Example A618] | < 5 | 0.1 to 1 |
| CCn1c(-c2cccnc2[C@H](C)OC)c2c3cc(ccc31)-c1csc(n1)C[C@H](NC(=O)[C@H](C(C)C)N(C)C(=O)N1C[C@@H]3CN(C(=O)C#CC(C)(C)N(C)C)CC[C@@H]31)C(=O)N1CCC[C@H](N1)C(=O)OCC(C)(C)C2 (atropisomer, axis not shown) [Example A625] | < 5 | 0.1 to 1 |
| C=CC(=O)N(C)[C@H]1CN(C(=O)N(C)[C@H](C(=O)N[C@H]2Cc3nc(cs3)-c3ccc4c(c3)c(c(-c3cccnc3[C@H](C)OC)n4CC)CC(C)(C)COC(=O)[C@@H]3CCCN(N3)C2=O)C(C)C)C[C@@H]1F (atropisomer, axis not shown) [Example A632] | < 5 | 0.1 to 1 |
| C=CC(=O)N(C)[C@@H]1C[C@H](C)N(C(=O)N(C)[C@H](C(=O)N[C@H]2Cc3nc(cs3)-c3ccc4c(c3)c(c(-c3cccnc3[C@H](C)OC)n4CC)CC(C)(C)COC(=O)[C@@H]3CCCN(N3)C2=O)C(C)C)C1 (atropisomer, axis not shown) [Example A633] | < 5 | 0.1 to 1 |
| C=CC(=O)N(C)[C@@H]1C[C@@H](C)N(C(=O)N(C)[C@H](C(=O)N[C@H]2Cc3nc(cs3)-c3ccc4c(c3)c(c(-c3cccnc3[C@H](C)OC)n4CC)CC(C)(C)COC(=O)[C@@H]3CCCN(N3)C2=O)C(C)C)C1 (atropisomer, axis not shown) [Example A634] | < 5 | 0.1 to 1 |
| C=CC(=O)N1CCCC2(CCN(C(=O)N(C)[C@H](C(=O)N[C@H]3Cc4nc(cs4)-c4ccc5c(c4)c(c(-c4cccnc4[C@H](C)OC)n5CC)CC(C)(C)COC(=O)[C@@H]4CCCN(N4)C3=O)C(C)C)CC2)C1 (atropisomer, axis not shown) [Example A635] | < 5 | 0.1 to 1 |
| C=CC(=O)N1CC2(CCN2C(=O)N(C)[C@H](C(=O)N[C@H]2Cc3cccc(n3)-c3ccc4c(c3)c(c(-c3cccnc3[C@H](C)OC)n4CC)CC(C)(C)COC(=O)[C@@H]3CCCN(N3)C2=O)C(C)C)C1 (atropisomer, axis not shown) [Example A636] | < 5 | 1 to 10 |
| CCn1c(-c2cccnc2[C@H](C)OC)c2c3cc(ccc31)-c1csc(n1)C[C@H](NC(=O)C[C@@H](C)OC1CN(C(=O)C#CC(C)(C)N(C)C)C1)C(=O)N1CCC[C@H](N1)C(=O)OCC(C)(C)C2 (atropisomer, axis not shown) [Example A638] | < 5 | 1 to 10 |
| C=CC(=O)N1CC[C@H](C(=O)N(C)[C@H](C(=O)N[C@H]2Cc3cccc(c3)-c3ccc4c(c3)c(c(-c3cccnc3[C@H](C)OC)n4CC)CC(C)(C)COC(=O)[C@@H]3CCCN(N3)C2=O)[C@@H](C)C(F)(F)F)C1 (atropisomer, axis not shown) [Example A640] | < 5 | 1 to 10 |
| CCn1c(-c2cccnc2[C@H](C)OC)c2c3cc(ccc31)N1CCO[C@@H](C[C@H](NC(=O)[C@H](C(C)C)N(C)C(=O)C3(F)CCN(C(=O)/C=C/CN(C)C)CC3)C(=O)N3CCC[C@H](N3)C(=O)OCC(C)(C)C2)C1 (atropisomer, axis not shown) [Example A645] | < 5 | 1 to 10 |
| CC#CC(=O)N1CC2(CCN2C(=O)N(C)[C@H](C(=O)N[C@H]2Cc3nc(cs3)-c3ccc4c(c3)c(c(-c3cccnc3[C@H](C)OC)n4CC)CC(C)(C)COC(=O)[C@@H]3CCCN(N3)C2=O)C(C)C)C1 (atropisomer, axis not shown) [Example A655] | < 5 | 0.1 to 1 |
| C=CC(=O)N1CC[C@]2(CCN2C(=O)N(C)[C@H](C(=O)N[C@H]2Cc3nc(cs3)-c3ccc4c(c3)c(c(-c3cccnc3[C@H](C)OC)n4CC)CC(C)(C)COC(=O)[C@@H]3CCCN(N3)C2=O)C(C)C)C1 (atropisomer, axis not shown) [Example A662] | < 5 | 0.1 to 1 |
| CCn1c(-c2cccnc2[C@H](C)OC)c2c3cc(ccc31)-c1csc(n1)C[C@H](NC(=O)[C@H](C(C)C)N(C)C(=O)N1CCCOC13CN(C(=O)C#CC(C)(C)N(C)C)C3)C(=O)N1CCC[C@H](N1)C(=O)OCC(C)(C)C2 (atropisomer, axis not shown) [Example A666] | < 5 | > 10 |
| C=CC(=O)N1CC[C@]2(COCCN2C(=O)N(C)[C@H](C(=O)N[C@H]2Cc3nc(cs3)-c3ccc4c(c3)c(c(-c3cccnc3[C@H](C)OC)n4CC)CC(C)(C)COC(=O)[C@@H]3CCCN(N3)C2=O)C(C)C)C1 (atropisomer, axis not shown) [Example A676] | < 5 | 1 to 10 |
| C=CC(=O)N1CC2(CCN(C(=O)N(C)[C@H](C(=O)N[C@H]3Cc4cccc(c4)-c4ccc5c(c4)c(c(-c4cccnc4[C@H](C)OC)n5CC)CC(C)(C)COC(=O)[C@@H]4CCCN(N4)C3=O)C(C)C)CC2)C1 (atropisomer, axis not shown) [Example A680] | < 5 | 0.1 to 1 |
| C=CC(=O)N1CC[C@@H]2[C@H](C1)CN2C(=O)N(C)[C@H](C(=O)N[C@H]1Cc2nc(cs2)-c2ccc3c(c2)c(c(-c2cccnc2[C@H](C)OC)n3CC)CC(C)(C)COC(=O)[C@@H]2CCCN(N2)C1=O)C(C)C (atropisomer, axis not shown) [Example A688] | < 5 | 1 to 10 |
| C=CC(=O)N1CCC2(CCCN(C(=O)N(C)[C@H](C(=O)N[C@H]3Cc4nc(cs4)-c4ccc5c(c4)c(c(-c4cccnc4[C@H](C)OC)n5CC)CC(C)(C)COC(=O)[C@@H]4CCCN(N4)C3=O)C(C)C)C2)CC1 (atropisomer, axis not shown) [Example A696] | < 5 | 0.1 to 1 |
| CCn1c(-c2cccnc2[C@H](C)OC)c2c3cc(ccc31)-c1cccc(c1)C[C@H](NC(=O)[C@@H](COC1CN(C(=O)C#CC(C)(C)O)C1)C(C)C)C(=O)N1CCC[C@H](N1)C(=O)OCC(C)(C)C2 (atropisomer, axis not shown) [Example A708] | < 5 | 1 to 10 |
| CCn1c(-c2cccnc2[C@H](C)OC)c2c3cc(ccc31)-c1csc(n1)C[C@H](NC(=O)[C@H](C(C)C)N(C)C(=O)N1CCN(C(=O)/C=C/CN(C)C)C[C@@H]1C)C(=O)N1CCC[C@H](N1)C(=O)OCC(C)(C)C2 (atropisomer, axis not shown) [Example A709] | < 5 | 0.1 to 1 |
| CCn1c(-c2cccnc2[C@H](C)OC)c2c3cc(ccc31)-c1csc(n1)C[C@H](NC(=O)[C@H](C(C)C)N(C)C(=O)N1CC(N(C)C(=O)/C=C/CN(C)C)C1)C(=O)N1CCC[C@H](N1)C(=O)OCC(C)(C)C2 (atropisomer, axis not shown) [Example A710] | < 5 | 0.1 to 1 |
| C=C(OC)C(=O)N1CC(N(C)C(=O)N(C)[C@H](C(=O)N[C@H]2Cc3nc(cs3)-c3ccc4c(c3)c(c(-c3cccnc3[C@H](C)OC)n4CC)CC(C)(C)COC(=O)[C@@H]3CCCN(N3)C2=O)C(C)C)C1 (atropisomer, axis not shown) [Example A713] | < 5 | 1 to 10 |
